In patent US20130123253A1, “MODULATORS OF CENTRAL NERVOUS SYSTEM NEUROTRANSMITTERS” (HUMAN BIOMOLECULAR RESEARCH INSTITUTE, priority 2004, published 2013):
Like-named read-outs stand apart in the source and are kept apart here. Values belong to the molecule of their own block, whether it stands above or below them.

Legend:
GRK2 = molecular target: T1, GRK2 (Homo sapiens, UniProt P25098); assay: High throughput KinaseGlo kinase assay; format: biochemical
T1 construct: host or cells: gift of a collaborator (Professor Benovic, Thomas Jefferson University)
T1 sequence (P25098 1-689): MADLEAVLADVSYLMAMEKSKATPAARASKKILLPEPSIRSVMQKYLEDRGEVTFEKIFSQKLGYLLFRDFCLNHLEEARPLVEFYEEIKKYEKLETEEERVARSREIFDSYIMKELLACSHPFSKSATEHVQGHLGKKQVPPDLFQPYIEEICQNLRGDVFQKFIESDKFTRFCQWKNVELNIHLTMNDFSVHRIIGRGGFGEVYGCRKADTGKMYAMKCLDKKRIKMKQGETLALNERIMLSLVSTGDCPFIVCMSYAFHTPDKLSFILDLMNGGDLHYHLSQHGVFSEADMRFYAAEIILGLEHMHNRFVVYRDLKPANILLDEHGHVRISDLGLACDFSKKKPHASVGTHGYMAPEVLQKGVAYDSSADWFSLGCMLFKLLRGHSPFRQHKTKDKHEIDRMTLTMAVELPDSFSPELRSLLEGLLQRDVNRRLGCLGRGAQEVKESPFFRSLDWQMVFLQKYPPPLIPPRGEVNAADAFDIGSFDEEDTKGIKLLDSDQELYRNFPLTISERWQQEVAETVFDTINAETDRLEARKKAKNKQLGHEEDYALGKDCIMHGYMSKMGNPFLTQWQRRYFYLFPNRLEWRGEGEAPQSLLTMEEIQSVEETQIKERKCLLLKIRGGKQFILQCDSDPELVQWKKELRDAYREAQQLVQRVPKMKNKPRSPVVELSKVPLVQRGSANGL

mice = assay: Morris water maze test; format: in vivo, mouse; conditions: 3 mg/kg, compared to control mice
Description: Compounds 19 and 115 were tested in a Morris water maze test. The escape latency (time to climb onto a hidden platform) for each mouse was recorded as a memory test. […] Compared to a group of control mice, compound 19 and 115 caused a 30% improvement in memory at 3 mg/kg. […] This is not completely unexpected as SSRIs often require repeated dosing to see a large and significant effect. […] Multiple dosing likely will increase the efficacy of the compounds tested.

ICR mice = assay: Forced-swim test in ICR mice; format: in vivo, mouse
Description: Forty male ICR mice, weighed 26.2±0.3 g, were housed in a temperature-controlled room (22-23° C.) and maintained on a 12-hour on 12-hour off light cycle (lights on at 6:00 AM). Water and food were freely available in the home cages. […] Saline containing the same percentage of DMSO was used as vehicle. The lower doses were tested followed by the larger doses 1 week later, when the mice were again randomly divided into four groups as described above. The forced-swim test (FST) was carried out as described previously. Mice were given a swimming pretest session, once a day for two successive days. Twenty-four hours after the last session, mice were injected vehicle or the lower dose of each test compound by the i.p. route 30 min prior to the FST. One week later, administration of the larger dose of each of the test compounds was repeated. During the pretest and test sessions, each mouse was placed for 6 min in a plastic cylinder (45 cm high×20 cm diameter), which was filled to a depth of 28 cm with water (23±1° C.). The duration of immobility, which was defined as floating in an upright position without additional activity other than that necessary for the animal to keep its head above water, was recorded.

human PDE4D3 = molecular target: T2, human PDE4D3 (Homo sapiens, UniProt Q08499); assay: Inhibition of cAMP hydrolysis by recombinant human PDE4D3; format: biochemical
T2 construct: made in house; host or cells: Cos 7 cells (construct and cells a gift from Dr. Conti, Stanford)
T2 sequence (Q08499 1-673 isoform Q08499-2): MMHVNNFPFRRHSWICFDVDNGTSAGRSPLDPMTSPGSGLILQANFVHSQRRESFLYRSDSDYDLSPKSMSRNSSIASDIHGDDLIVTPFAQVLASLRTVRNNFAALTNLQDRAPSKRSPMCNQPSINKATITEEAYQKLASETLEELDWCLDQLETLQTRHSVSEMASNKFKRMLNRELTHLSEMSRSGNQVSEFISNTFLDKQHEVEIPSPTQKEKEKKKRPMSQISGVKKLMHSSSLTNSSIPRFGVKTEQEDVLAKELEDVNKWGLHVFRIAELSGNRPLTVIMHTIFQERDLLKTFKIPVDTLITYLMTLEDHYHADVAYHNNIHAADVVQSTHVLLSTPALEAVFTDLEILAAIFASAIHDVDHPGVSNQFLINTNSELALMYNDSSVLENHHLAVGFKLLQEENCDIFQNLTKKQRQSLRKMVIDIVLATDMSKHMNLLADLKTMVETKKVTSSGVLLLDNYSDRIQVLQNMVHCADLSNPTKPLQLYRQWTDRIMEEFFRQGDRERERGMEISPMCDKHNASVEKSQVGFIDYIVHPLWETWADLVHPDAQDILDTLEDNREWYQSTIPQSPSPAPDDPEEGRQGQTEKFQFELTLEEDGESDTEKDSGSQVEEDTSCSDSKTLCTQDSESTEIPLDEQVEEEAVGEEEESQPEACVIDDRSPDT
Description: The PDE construct was transfected into Cos 7 cells in round culture dish (100×20 mm). The cells were then harvested and homogenized with lysis buffer. The crude homogenate was spun at maximum speed in a microfuge. The supernatant fluid was saved as an extract. […] The PDE construct and Cos 7 cells were a kind gift from Dr. Conti at the Stanford University School of Medicine.
(§1) PDE4 enzyme assays were carried out as described previously. Studies with recombinant PDE4 enzymes were carried out in the laboratory of Professor Marco Conti (Stanford University, Palo Alto, Calif.).

human PDE4B3 = molecular target: T3, human PDE4B3 (Homo sapiens, UniProt Q07343); assay: Inhibition of cAMP hydrolysis by recombinant human PDE4B3; format: biochemical; conditions: Example 29
T3 construct: made in house
T3 sequence (Q07343 1-721 isoform Q07343-3): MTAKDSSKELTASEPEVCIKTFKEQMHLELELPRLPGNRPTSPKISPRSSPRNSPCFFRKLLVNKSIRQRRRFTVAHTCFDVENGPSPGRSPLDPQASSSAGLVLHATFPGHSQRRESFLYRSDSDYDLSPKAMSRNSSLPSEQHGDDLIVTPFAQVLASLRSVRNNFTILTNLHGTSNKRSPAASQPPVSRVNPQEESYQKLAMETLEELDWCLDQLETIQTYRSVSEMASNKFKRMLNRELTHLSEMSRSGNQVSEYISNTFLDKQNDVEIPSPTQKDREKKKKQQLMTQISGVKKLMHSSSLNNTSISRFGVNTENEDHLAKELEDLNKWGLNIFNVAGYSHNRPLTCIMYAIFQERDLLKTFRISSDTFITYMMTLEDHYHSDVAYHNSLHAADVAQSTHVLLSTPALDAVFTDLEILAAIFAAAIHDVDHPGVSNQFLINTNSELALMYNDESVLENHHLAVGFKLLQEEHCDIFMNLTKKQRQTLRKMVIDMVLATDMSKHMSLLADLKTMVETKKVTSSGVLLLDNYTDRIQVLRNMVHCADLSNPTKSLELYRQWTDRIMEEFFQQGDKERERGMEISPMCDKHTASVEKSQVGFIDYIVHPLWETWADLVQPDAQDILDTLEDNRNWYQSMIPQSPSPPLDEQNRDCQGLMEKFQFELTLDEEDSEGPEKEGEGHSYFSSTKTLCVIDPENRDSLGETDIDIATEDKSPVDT
Description: as §1

Balb/c mice = assay: Forced-swim test in Balb/c mice; format: in vivo, mouse; conditions: i.p. 23, 5 and 1 hr prior; fluoxetine 10 mg/kg, 18k/l or 14 10 mg/kg, 21 1 mg/kg
Description: The study was conducted according to a standard operation procedure and in accordance with all Federal regulations. Water and food were freely available in the home cages. […] Mice were given a swimming pretest session, once a day for two successive days. […] During the pretest and test sessions, each mouse was placed for […] in a plastic cylinder (45 cm high×20 cm diameter), which was filled to a depth of 28 cm with water (23±1° C.). The duration of immobility, which was defined as floating in an upright position without additional activity other than that necessary for the animal to keep its head above water, was recorded. For the subchronic administration tests, the animals were separated as above and vehicle or chemicals were given by i.p. administration 23, 5 and 1 hr before the FST. The subchronic experiments were done similar to the study described above except for the pretest training that was not carried out.
Mice in the first session were treated with vehicle or the drugs acutely, whereas mice in the second sessions were treated subchronically, i.e., vehicle or drugs were given i.p. 23, 5, and 1 hr before the FST. The experiment was performed similar to Experiment 1 except for the pretest training, which was not carried out in the second session.

[1] = Human liver microsome stability assay; format: in vitro ADME
Description: (§2) Microsomal incubations (final volume 0.25 mL) with the SSRIs, dual PDE4 inhibitor/SSRIs or PDE4 inhibitor was done with an HPLC assay as described above. Diluted stocks of either mouse, human or rat liver microsomes (0.5 mg of protein), […] potassium phosphate buffer (pH 7.4), 0.5 mM NADI)^+, 0.5 mM glucose-6-phosphate, 5 IU/mL glucose-6-phosphate dehydrogenase, 0.6 mM DETAPAC, and 3 mM MgC12 were combined and placed on ice. For a metabolic stability assay, either vehicle or 40 μM test compound was added and the incubation was initiated at 37° C. with constant shaking. After 0, 10, 25, 40 and 60 min, the incubations were stopped by the addition of 1 mL CH2Cl2/2-propanol (3:1, v:v). After thorough mixing, the organic layer was separated from the aqueous portion by centrifugation at 12,000×g. The organic material was evaporated with a stream of argon. The residue was dissolved in methanol (200 μL) and the sample was analyzed by HPLC.

human PDE4A1 = molecular target: T4, human PDE4A1 (Homo sapiens, UniProt P27815); assay: Inhibition of cAMP hydrolysis by recombinant human PDE4A1; format: biochemical
T4 construct: made in house
T4 sequence (P27815 1-647 isoform P27815-4): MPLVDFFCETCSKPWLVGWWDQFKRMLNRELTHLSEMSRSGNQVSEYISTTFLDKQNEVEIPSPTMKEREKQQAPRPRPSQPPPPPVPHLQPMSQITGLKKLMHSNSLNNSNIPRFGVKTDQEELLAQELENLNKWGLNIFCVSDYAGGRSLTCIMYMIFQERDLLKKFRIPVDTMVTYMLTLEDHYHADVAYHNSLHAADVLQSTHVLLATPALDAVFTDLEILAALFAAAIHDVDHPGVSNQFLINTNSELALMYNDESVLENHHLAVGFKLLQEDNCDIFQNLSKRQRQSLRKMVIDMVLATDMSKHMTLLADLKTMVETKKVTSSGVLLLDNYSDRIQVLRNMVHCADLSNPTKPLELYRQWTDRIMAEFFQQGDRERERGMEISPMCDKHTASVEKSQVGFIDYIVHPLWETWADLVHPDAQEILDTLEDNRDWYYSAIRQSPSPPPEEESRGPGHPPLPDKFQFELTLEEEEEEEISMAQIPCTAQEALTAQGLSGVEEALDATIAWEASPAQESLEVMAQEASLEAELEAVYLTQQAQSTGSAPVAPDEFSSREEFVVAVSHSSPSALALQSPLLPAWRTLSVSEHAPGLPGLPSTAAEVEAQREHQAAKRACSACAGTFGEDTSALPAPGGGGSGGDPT
Description: as §1

[2] = Mouse liver microsome stability assay; format: in vitro ADME; conditions: for half life, mouse liver microsomes: NADPH; for MLM t1/2: Table 16
Description: (§3) A typical assay mixture contained either mouse or rat liver microsomes (0.5 mg of protein), […] potassium phosphate buffer (pH 7.4), 40 μM test compounds, 0.5 mM NADP+, 0.5 mM glucose-6-phosphate, 5 IU/mL glucose-6-phosphate dehydrogenase, 1 mg/mL diethylenetriaminepentaacetic acid (DETAPAC) and 5 mM MgCl2 in a final incubation volume of 0.1 mL. After 0, 10, 25, 40 and […], the incubations were stopped by the addition of 1 ml CH2Cl2/2-propanol (3:1 v:v). The mixture was centrifuged at 12,000×g for 1 min, and the organic layer was separated from the aqueous fraction. The organic fraction was evaporated with a stream of argon and the residue was taken up in methanol (200 μL) and injected into the HPLC system described above.
as §2

rodent PDE4 = assay: Inhibition of rodent PDE4 (rolipram binding sites); conditions: Table 4
Description: IC50 values for inhibitor interaction with this site were calculated by nonlinear regression analysis of competition curves for unlabeled PDE4 inhibitors; Ki values were determined according to the method of Cheng and Prusoff (1973). […] Competition curves for the PDE4 inhibitors were subjected to nonlinear regression analysis and IC50 values with which the inhibitors bind to each of the binding sites was determined; K1 values were determined according to the method of Cheng and Prusoff (1973).

[3] = Rat liver microsome stability assay; format: in vitro ADME
Description: as §3
as §2, with “After 0, 10, 25, 40 and 60 min, the incubations were stopped by the addition of 1 mL CH2Cl2/2-propanol (3:1, v:v). After thorough mixing, the organic layer was separated from the aqueous portion by centrifugation at 12,000×g. The organic material was evaporated with a stream of argon.” left out

SMILES: COc1ccc(F)cc1CCC1CCC(CCN)O1 (stereo not shown) [Compound 28]
GRK2 stimulation or inhibition (GRK2): potent stimulators of GRK2
improvement in memory (escape latency) (mice): ~10%

PDE4A1/PDE4D3 inhibitory selectivity ratio (human PDE4D3): < 500 fold
PDE4B3/PDE4D3 inhibitory selectivity ratio (human PDE4D3): 100 fold
Ki (human PDE4D3; Example 29, read-out: Ki, human PDE4D3): 2 nM
Ki (human PDE4B3): 199 nM
metabolism in human liver microsomes ([1]; NADPH, up to 60 min): not detectably metabolized
half-life at 40 μM ([1]; human, liver microsomes, pH 7.4, Table 16, read-out: HLM t1/2): > 1 h
Ki (human PDE4A1; Example 29, read-out: Ki, human PDE4A1): > 1000 nM
Ki (human PDE4A1; Table 14, read-out: Human PDE4A1 Ki): < 1000 nM
half life, mouse liver microsomes [2]: 2.57 h
MLM t1/2 [2]: 2.565 h
pIC50 (rodent PDE4): 6.6
SMILES: COc1ccc(F)cc1CCC1CCC(CCNCCCCCN2N=C(c3ccc(OC)c(OC)c3)C3CC=CCC3C2=O)O1 (racemic) [Compound 21, 4-(3,4-Dimethoxy-phenyl)-2-[5-(2-{5-[2-(5-fluoro-2-methoxy-phenyl)-ethyl]-thtrahydro-furan-2-yl}-ethylamino)-pentyl]-4,5,8,8a-tetrahydro-2H-phthalazin-1-one]
immobility, forced-swim test, acute, higher dose (ICR mice; 3 mg/kg i.p., vs vehicle, P<0.05): significantly reduced immobility
duration of immobility, forced-swim test, acute (ICR mice; 0.3 and 3 mg/kg i.p.): decreased duration of immobility in a dose-dependent manner
efficacy relative to fluoxetine on a molar basis (ICR mice; 21 0.5 μmol/kg vs fluoxetine 65 μmol/kg): 129 fold
immobility, forced-swim test, subchronic (Balb/c mice): did not change immobility

half life, rat liver microsomes ([3]; NADPH): 2.15 h
RLM t1/2 ([3]; Table 16): 2.15 h
half life, mouse liver microsomes [2]: 0.967 h
MLM t1/2 [2]: 0.975 h
SMILES: CNCCC1CCC(CCc2cc(F)ccc2OC)O1 (stereo not shown) [Compound 24, (2-{5-[2-(5-Fluoro-2-methoxy-phenyl)-ethyl]-tetrahydro-furan-2-yl}-ethyl)-methyl-amine]

SMILES: NC1CC1c1cccnc1 (stereo not shown) [2-(pyridine-3-yl)cyclopropanamine]
GRK2 stimulation or inhibition (GRK2): potent stimulators of GRK2
